Assay in all cases: Kinase profiling in a biochemical assay panel (mobility shift assays and ELISA), %-inhibition at 1 μM; selectivity entropy
In general terms: An ELISA detects its analyte on a solid surface through an enzyme-linked reagent.

The target of test [1] is panel of more than 300 wild-type and mutant kinases (313 kinase panel) (Homo sapiens, UniProt Q15208).
The target of test [2] is panel of more than 300 wild-type and mutant kinases (313 kinase panel) (Homo sapiens, UniProt Q9Y6R4).
Test [3] concerns the target panel of more than 300 wild-type and mutant kinases (313 kinase panel) (Homo sapiens, UniProt P07948).
The target of test [4] is T1, panel of more than 300 wild-type and mutant kinases (313 kinase panel) (Homo sapiens, UniProt P41743).
T1 sequence (P41743 1-596): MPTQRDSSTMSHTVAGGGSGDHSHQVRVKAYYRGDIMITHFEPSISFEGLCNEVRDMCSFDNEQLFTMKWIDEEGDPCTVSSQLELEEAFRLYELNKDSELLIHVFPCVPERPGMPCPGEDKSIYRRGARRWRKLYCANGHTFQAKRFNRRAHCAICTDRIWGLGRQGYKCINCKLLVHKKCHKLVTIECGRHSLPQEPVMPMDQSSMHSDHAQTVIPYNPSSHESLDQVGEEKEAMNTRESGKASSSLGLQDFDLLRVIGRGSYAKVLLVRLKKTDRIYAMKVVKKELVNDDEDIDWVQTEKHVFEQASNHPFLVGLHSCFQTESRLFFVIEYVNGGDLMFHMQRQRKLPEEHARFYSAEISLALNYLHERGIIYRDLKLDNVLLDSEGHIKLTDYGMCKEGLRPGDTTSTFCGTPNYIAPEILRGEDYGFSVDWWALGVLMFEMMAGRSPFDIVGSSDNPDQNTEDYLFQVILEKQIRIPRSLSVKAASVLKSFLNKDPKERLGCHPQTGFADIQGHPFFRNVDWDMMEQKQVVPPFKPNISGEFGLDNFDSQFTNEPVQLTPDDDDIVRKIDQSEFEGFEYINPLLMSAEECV

Test [5] deals with panel of more than 300 wild-type and mutant kinases (313 kinase panel) (Homo sapiens, UniProt Q9H422).
For test [6], the target named is panel of more than 300 wild-type and mutant kinases (313 kinase panel) (Homo sapiens, UniProt O60674).
The target of test [7] is panel of more than 300 wild-type and mutant kinases (313 kinase panel) (Homo sapiens, UniProt P51812).
The target in test [8] is panel of more than 300 wild-type and mutant kinases (313 kinase panel) (Homo sapiens, UniProt P08581, Y1235D).
Test [9] concerns the target panel of more than 300 wild-type and mutant kinases (313 kinase panel) (Homo sapiens, UniProt P10721).
In test [10] the target is panel of more than 300 wild-type and mutant kinases (313 kinase panel) (Homo sapiens, UniProt P53779).
The target in test [11] is T2, panel of more than 300 wild-type and mutant kinases (313 kinase panel) (Homo sapiens, UniProt P51955).
T2 sequence (P51955 1-445): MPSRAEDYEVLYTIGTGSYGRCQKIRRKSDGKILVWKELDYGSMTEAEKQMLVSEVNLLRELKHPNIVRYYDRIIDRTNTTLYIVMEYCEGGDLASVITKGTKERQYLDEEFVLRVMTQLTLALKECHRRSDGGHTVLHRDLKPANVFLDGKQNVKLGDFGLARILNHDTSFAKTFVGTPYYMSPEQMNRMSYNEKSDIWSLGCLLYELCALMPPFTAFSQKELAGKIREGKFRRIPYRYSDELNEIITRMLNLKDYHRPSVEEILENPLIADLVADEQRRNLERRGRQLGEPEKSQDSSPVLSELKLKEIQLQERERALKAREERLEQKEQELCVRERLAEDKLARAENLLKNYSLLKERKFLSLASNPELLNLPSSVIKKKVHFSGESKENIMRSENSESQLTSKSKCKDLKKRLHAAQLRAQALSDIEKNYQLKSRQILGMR

The mark [12] stands for this setting: kinase MAP3K4, compound at 1 μM.
Setting [13] is: kinase MET(Y1235D), compound at 1 μM.

panel of more than 300 wild-type and mutant kinases (313 kinase panel) (Homo sapiens, UniProt P10721), sequence (P10721 26-976, change not shown): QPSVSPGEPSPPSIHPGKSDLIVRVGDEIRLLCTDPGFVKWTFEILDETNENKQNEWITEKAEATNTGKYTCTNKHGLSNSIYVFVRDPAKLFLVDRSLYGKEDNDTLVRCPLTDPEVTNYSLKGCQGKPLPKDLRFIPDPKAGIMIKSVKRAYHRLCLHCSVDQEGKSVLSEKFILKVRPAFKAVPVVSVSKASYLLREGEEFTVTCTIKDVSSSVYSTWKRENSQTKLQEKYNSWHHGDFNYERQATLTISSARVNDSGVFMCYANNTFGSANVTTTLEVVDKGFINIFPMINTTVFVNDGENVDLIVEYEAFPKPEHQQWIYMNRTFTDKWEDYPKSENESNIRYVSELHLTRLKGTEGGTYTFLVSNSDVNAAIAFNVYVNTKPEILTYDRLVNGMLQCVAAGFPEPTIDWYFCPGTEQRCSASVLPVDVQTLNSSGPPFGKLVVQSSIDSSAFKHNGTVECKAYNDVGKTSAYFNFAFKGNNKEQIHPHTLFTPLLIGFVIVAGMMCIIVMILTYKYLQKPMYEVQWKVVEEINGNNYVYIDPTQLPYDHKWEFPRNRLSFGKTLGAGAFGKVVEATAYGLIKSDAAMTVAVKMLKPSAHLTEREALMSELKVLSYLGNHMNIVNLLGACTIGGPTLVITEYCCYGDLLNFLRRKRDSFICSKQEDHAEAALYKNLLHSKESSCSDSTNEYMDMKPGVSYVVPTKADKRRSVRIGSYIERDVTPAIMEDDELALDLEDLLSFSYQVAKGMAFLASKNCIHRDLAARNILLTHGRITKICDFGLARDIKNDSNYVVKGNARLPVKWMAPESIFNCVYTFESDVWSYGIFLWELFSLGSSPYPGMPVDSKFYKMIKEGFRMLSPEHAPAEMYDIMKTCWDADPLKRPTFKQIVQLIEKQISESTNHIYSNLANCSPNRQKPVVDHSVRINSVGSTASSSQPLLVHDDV
panel of more than 300 wild-type and mutant kinases (313 kinase panel) (Homo sapiens, UniProt P08581, Y1235D), sequence (P08581 25-1390 Y1235D): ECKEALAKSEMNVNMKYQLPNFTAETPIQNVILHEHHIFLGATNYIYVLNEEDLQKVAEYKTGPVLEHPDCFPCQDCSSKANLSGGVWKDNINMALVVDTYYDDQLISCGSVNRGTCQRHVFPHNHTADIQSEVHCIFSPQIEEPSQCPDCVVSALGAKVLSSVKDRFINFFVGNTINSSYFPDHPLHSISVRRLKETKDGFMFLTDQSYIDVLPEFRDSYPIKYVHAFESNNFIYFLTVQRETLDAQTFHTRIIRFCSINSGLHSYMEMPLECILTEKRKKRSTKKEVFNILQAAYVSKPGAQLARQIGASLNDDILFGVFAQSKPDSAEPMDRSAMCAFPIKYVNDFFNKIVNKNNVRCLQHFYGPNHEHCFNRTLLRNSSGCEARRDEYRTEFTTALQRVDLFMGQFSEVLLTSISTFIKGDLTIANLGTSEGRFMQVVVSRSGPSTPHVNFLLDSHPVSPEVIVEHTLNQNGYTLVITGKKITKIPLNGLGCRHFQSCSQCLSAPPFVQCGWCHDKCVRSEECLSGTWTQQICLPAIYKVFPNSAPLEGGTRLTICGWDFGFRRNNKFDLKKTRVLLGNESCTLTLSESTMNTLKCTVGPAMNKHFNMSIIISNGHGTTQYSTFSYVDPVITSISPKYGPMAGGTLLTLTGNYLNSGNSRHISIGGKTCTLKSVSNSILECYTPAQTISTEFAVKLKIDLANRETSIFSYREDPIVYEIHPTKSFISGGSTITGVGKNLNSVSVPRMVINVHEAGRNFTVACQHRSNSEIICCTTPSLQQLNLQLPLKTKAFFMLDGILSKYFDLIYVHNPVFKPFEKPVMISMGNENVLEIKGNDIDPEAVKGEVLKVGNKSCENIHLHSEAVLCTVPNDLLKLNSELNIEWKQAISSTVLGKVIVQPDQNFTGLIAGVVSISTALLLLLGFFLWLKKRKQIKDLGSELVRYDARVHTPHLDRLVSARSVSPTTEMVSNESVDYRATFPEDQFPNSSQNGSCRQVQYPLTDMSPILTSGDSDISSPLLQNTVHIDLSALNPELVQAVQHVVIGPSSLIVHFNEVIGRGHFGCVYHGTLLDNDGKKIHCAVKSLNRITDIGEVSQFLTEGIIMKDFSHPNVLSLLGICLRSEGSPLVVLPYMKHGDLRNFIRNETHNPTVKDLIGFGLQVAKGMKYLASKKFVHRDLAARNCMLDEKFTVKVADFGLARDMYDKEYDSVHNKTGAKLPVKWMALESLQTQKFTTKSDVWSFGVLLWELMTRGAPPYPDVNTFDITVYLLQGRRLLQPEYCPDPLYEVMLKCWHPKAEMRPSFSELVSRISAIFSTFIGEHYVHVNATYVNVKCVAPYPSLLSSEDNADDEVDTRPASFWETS
panel of more than 300 wild-type and mutant kinases (313 kinase panel) (Homo sapiens, UniProt Q9Y6R4), sequence (Q9Y6R4 whole entry, change not shown): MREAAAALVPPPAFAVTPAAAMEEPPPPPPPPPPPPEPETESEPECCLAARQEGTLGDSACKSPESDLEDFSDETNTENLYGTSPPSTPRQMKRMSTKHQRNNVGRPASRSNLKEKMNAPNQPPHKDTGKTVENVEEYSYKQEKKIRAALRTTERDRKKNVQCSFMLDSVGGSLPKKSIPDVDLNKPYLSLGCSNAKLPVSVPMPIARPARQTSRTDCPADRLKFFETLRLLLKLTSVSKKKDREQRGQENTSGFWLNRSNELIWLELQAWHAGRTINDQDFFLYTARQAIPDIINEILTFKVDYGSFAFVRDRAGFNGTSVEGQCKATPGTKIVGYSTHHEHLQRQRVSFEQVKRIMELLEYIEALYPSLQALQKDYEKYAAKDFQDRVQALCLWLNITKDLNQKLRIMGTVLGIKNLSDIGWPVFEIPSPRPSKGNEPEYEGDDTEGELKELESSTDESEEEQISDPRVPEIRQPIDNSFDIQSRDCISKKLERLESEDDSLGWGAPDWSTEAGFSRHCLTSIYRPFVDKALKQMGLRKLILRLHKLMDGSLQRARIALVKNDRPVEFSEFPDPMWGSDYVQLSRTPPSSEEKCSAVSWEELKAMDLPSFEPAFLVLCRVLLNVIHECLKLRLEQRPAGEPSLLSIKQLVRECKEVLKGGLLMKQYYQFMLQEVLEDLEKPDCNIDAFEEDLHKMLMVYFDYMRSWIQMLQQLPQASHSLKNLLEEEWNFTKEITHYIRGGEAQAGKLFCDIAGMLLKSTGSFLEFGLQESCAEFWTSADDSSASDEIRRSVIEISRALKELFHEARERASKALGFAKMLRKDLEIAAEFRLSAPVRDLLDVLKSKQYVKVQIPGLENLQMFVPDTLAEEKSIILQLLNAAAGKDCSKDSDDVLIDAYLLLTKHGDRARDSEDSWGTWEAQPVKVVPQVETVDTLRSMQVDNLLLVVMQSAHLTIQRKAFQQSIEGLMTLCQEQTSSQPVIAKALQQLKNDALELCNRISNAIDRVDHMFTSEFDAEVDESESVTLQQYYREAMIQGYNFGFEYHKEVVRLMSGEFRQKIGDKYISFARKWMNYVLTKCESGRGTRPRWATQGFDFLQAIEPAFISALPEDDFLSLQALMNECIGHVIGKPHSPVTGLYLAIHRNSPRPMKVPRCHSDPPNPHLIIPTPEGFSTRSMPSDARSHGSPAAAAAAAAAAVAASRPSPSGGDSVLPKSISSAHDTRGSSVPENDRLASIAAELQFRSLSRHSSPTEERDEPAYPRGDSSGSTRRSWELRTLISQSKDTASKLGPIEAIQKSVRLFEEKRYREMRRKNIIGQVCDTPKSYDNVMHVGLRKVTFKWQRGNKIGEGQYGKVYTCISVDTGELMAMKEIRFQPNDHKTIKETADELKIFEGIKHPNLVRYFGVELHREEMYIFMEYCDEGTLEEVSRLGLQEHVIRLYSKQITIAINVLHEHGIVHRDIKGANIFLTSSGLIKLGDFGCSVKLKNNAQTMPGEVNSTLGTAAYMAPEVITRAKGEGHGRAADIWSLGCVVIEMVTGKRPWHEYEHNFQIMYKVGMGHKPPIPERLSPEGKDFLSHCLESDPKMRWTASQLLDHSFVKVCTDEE
panel of more than 300 wild-type and mutant kinases (313 kinase panel) (Homo sapiens, UniProt Q15208), sequence (Q15208 whole entry, change not shown): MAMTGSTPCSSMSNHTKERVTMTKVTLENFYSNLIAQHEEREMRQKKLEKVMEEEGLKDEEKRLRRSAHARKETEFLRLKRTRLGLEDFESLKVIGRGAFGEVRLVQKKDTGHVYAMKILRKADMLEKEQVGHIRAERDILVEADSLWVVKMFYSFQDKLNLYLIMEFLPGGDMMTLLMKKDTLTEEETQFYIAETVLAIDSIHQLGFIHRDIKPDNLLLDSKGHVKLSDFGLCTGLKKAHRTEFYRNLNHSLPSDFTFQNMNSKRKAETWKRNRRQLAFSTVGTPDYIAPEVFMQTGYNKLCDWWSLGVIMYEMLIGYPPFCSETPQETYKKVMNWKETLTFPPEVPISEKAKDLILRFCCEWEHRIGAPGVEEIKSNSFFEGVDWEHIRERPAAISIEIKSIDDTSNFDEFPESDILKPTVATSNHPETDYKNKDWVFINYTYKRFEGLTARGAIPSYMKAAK
panel of more than 300 wild-type and mutant kinases (313 kinase panel) (Homo sapiens, UniProt P53779), sequence (P53779 whole entry, change not shown): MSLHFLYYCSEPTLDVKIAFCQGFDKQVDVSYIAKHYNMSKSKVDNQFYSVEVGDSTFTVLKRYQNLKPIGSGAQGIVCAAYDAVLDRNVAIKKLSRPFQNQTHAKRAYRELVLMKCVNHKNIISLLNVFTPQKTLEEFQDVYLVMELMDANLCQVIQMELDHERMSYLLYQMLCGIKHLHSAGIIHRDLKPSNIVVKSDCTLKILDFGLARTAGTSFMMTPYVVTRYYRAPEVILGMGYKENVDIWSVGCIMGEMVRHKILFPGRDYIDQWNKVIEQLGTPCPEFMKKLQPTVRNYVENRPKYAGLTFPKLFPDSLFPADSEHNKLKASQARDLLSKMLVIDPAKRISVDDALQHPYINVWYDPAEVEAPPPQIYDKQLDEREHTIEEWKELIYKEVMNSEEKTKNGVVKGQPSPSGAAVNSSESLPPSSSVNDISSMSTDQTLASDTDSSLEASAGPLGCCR

Consider `COc1cc(Nc2c(C#N)cnc3cc(OCCCN4CCN(C)CC4)c(OC)cc23)c(Cl)cc1Cl` [bosutinib], for which the “%-inhibition of NDR1” value in [1] (1 µM) is -3.49%. In addition, in test [2] (setting [12]), the “%-inhibition of MAP3K4” value turned out to be 96%. Besides, the “%-inhibition of LYNa” value in test [3] (kinase LYNa, compound at 1 μM) is given as 93%. In addition, in [4] (kinase PKCι, 1 μM), the “%-inhibition of PKCι” value was 5%. Moreover, the “%-inhibition of HIPK3” value in [5] (kinase HIPK3, compound at 1 μM) was -3.66%. In addition, in test [6] (kinase JAK2, compound at 1 μM), the “%-inhibition of JAK2” value was determined as 64%. For the same compound, in [7] (1 µM), the “%-inhibition of RSK2” value is 41%. For the same compound, the “%-inhibition of MET(Y1235D)” value in test [8] (setting [13]) is reported as 14%. In [9] (kinase KIT, compound at 1 μM), the “%-inhibition of KIT” value came out at 23%.
For `C#Cc1cccc(Nc2ncnc3cc(OCCOC)c(OCCOC)cc23)c1` [erlotinib], the “%-inhibition of NDR1” value in test [1] (1 µM) worked out at 3.48%. For the same compound, the “%-inhibition of MAP3K4” value in test [2] (1 µM) is -1.55%. Besides, the “%-inhibition of JNK3” value in test [10] (1 µM) is 22%. The “%-inhibition of LYNa” value in [3] (1 µM) was 64%. The “%-inhibition of NEK2” value in test [11] (1 µM) is on record as -0.556%. In addition, in test [4] (1 µM), the “%-inhibition of PKCι” value is given as 9%. In addition, the “%-inhibition of HIPK3” value in [5] (1 µM) was found to be 10%. In addition, the “%-inhibition of JAK2” value in test [6] (1 µM) is on record as 36%. The “%-inhibition of RSK2” value in test [7] (1 µM) is reported as 6.4%. For the same compound, the “%-inhibition of MET(Y1235D)” value in test [8] (1 µM) is reported as 22%. In addition, in test [9] (1 µM), the “%-inhibition of KIT” value was found to be 32%.
In the case of `O=S(=O)(c1cccc2cnccc12)N1CCCNCC1` [fasudil], the “%-inhibition of NDR1” value in [1] (kinase NDR1, 1 μM) is listed as 18%. For the same compound, in test [2] (setting [12]), the “%-inhibition of MAP3K4” value is given as -18%. The “%-inhibition of JNK3” value in test [10] (kinase JNK3, compound at 1 μM) is -4%. For the same compound, in test [3] (kinase LYNa, compound at 1 μM), the “%-inhibition of LYNa” value is -1.61%. Also, in test [11] (kinase NEK2, 1 μM), the “%-inhibition of NEK2” value was -1%. The “%-inhibition of PKCι” value in test [4] (kinase PKCι, 1 μM) was 14%. Besides, in test [5] (kinase HIPK3, compound at 1 μM), the “%-inhibition of HIPK3” value is listed as -0.764%. Further, the “%-inhibition of JAK2” value in test [6] (kinase JAK2, compound at 1 μM) is 3.24%. Besides, in [8] (setting [13]), the “%-inhibition of MET(Y1235D)” value is given as -2.65%. Also, in test [9] (kinase KIT, compound at 1 μM), the “%-inhibition of KIT” value is recorded as -0.648%.
In the case of `CS(=O)(=O)CCNCc1ccc(-c2ccc3ncnc(Nc4ccc(OCc5cccc(F)c5)c(Cl)c4)c3c2)o1` [lapatinib], in [1] (kinase NDR1, 1 μM), the “%-inhibition of NDR1” value is recorded as -0.543%. The “%-inhibition of MAP3K4” value in [2] (1 µM) was 2%. Further, the “%-inhibition of JNK3” value in test [10] (kinase JNK3, compound at 1 μM) amounted to 11%. Besides, the “%-inhibition of LYNa” value in test [3] (1 µM) is 9%. In addition, in test [11] (kinase NEK2, 1 μM), the “%-inhibition of NEK2” value is on record as -3.7%. For the same compound, the “%-inhibition of PKCι” value in test [4] (kinase PKCι, 1 μM) is -0.659%. In addition, the “%-inhibition of HIPK3” value in test [5] (kinase HIPK3, compound at 1 μM) is 0.236%. Besides, in test [6] (kinase JAK2, compound at 1 μM), the “%-inhibition of JAK2” value is -1.58%. Moreover, in test [7] (kinase RSK2, 1 μM), the “%-inhibition of RSK2” value is recorded as -1%. Moreover, the “%-inhibition of MET(Y1235D)” value in test [8] (setting [13]) was determined as 2%. Besides, the “%-inhibition of KIT” value in test [9] (1 µM) is recorded as 9%.
As to `Cc1cn(-c2cc(NC(=O)c3ccc(C)c(Nc4nccc(-c5cccnc5)n4)c3)cc(C(F)(F)F)c2)cn1` [nilotinib], in test [1] (kinase NDR1, 1 μM), the “%-inhibition of NDR1” value is -3%. Moreover, the “%-inhibition of MAP3K4” value in test [2] (setting [12]) was -18%. Also, in [10] (kinase JNK3, compound at 1 μM), the “%-inhibition of JNK3” value was determined as 39%. Also, the “%-inhibition of LYNa” value in [3] (kinase LYNa, compound at 1 μM) amounted to 85%. Also, the “%-inhibition of NEK2” value in test [11] (kinase NEK2, 1 μM) is -19%. For the same compound, the “%-inhibition of PKCι” value in [4] (kinase PKCι, 1 μM) is given as -8%. For the same compound, in test [5] (kinase HIPK3, compound at 1 μM), the “%-inhibition of HIPK3” value was determined as 12%. In test [6] (kinase JAK2, compound at 1 μM), the “%-inhibition of JAK2” value is 19%. For the same compound, in test [7] (kinase RSK2, 1 μM), the “%-inhibition of RSK2” value worked out at 13%. Moreover, the “%-inhibition of MET(Y1235D)” value in [8] (setting [13]) is recorded as -4.56%. Also, in test [9] (1 µM), the “%-inhibition of KIT” value is recorded as 96%.
For the compound `CNC(=O)c1cc(Oc2ccc(NC(=O)Nc3ccc(Cl)c(C(F)(F)F)c3)c(F)c2)ccn1` [regorafenib], in [1] (kinase NDR1, 1 μM), the “%-inhibition of NDR1” value was -9%. Further, in test [2] (setting [12]), the “%-inhibition of MAP3K4” value was -9%. Moreover, the “%-inhibition of JNK3” value in test [10] (kinase JNK3, compound at 1 μM) is on record as 5%. Besides, in test [3] (kinase LYNa, compound at 1 μM), the “%-inhibition of LYNa” value is 89%. In test [11] (kinase NEK2, 1 μM), the “%-inhibition of NEK2” value is listed as -6.65%. Also, in test [4] (kinase PKCι, 1 μM), the “%-inhibition of PKCι” value is given as -8%. Moreover, the “%-inhibition of HIPK3” value in test [5] (kinase HIPK3, compound at 1 μM) is 88%. Besides, the “%-inhibition of JAK2” value in test [6] (kinase JAK2, compound at 1 μM) worked out at 33%. Moreover, the “%-inhibition of RSK2” value in [7] (kinase RSK2, 1 μM) worked out at 6.66%. In test [8] (setting [13]), the “%-inhibition of MET(Y1235D)” value was -1.72%. Also, in test [9] (kinase KIT, compound at 1 μM), the “%-inhibition of KIT” value was determined as 100%.
Turning to `CCCS(=O)(=O)Nc1ccc(F)c(C(=O)c2c[nH]c3ncc(-c4ccc(Cl)cc4)cc23)c1F` [vemurafenib], the “%-inhibition of NDR1” value in test [1] (kinase NDR1, 1 μM) is -3.81%. Moreover, the “%-inhibition of MAP3K4” value in [2] (setting [12]) was 14%. Moreover, the “%-inhibition of JNK3” value in [10] (kinase JNK3, compound at 1 μM) is listed as 2.85%. Moreover, the “%-inhibition of LYNa” value in [3] (kinase LYNa, compound at 1 μM) is 73%. For the same compound, the “%-inhibition of NEK2” value in test [11] (kinase NEK2, 1 μM) is given as -1%. Also, in test [4] (kinase PKCι, 1 μM), the “%-inhibition of PKCι” value was -16%. For the same compound, in test [5] (kinase HIPK3, compound at 1 μM), the “%-inhibition of HIPK3” value was -6%. For the same compound, the “%-inhibition of JAK2” value in [6] (kinase JAK2, compound at 1 μM) was 18%. Besides, the “%-inhibition of RSK2” value in [7] (kinase RSK2, 1 μM) was -2.31%. In test [8] (setting [13]), the “%-inhibition of MET(Y1235D)” value was found to be 2.5%. Moreover, the “%-inhibition of KIT” value in [9] (kinase KIT, compound at 1 μM) was 58%.

For the origin of these results see PMC3961306, “Comparison of the Cancer Gene Targeting and Biochemical Selectivities of All Targeted Kinase Inhibitors Approved for Clinical Use” (PLoS ONE, 2014).
